From US20100203575A1, “In Vitro Beating Heart Model” (INSERM (Institut National de la Sante et de la Recherche …, priority 2007, published 2010)
Read-outs that look alike come from different tables or passages of the source.

Assays:
heart slice cultures [1] = conditions: 10, 100 nmol/L and 1 μmol/L, 30 days after plating, 37° C., monitored 3 min after stimulation
Procedure: (§1) Cultures were prepared from ventricular sections of 3 day-old rats (Charles River, France) or 8 weeks-old human embyros. The hearts were removed and placed in Phosphate-Buffered Saline (PBS), atria were removed and the ventricles sliced at 1 mm-thickness using a rodent heart matrix (Harvard Apparatus). The heart slices were immediately transferred to a Millicell-CM 0.4 μm membrane (Millipore, France) and the insert placed into a 6 well-plate containing 1 ml of medium.
(§2) The culture medium consisted of DMEM/F12 medium supplemented with 20% Knockout Serum Replacement, 1% non essential amino acids, 2 mM L-glutamine, 0.1 mM β-mercaptoethanol, and 1% PS (Invitrogen, France). Heart slices were maintained for 30-80 days at 37° C. in a humidified atmosphere containing 5% CO2.
(§3) Further functional characterization of the contractile function of ventricular slices was carried out on 24 slices, at 30 days after plating, using a stereomicroscope and a temperature-controlled stage set at 37° C., following incubation with 10, 100nM and 1 μM of epinephrine (Sigma, France). Beating frequency was monitored 3 min after pharmacological stimulation.

human heart slices = conditions: slices from 8 week-old human embryo
Procedure: as §1, §2, §3

heart slice cultures [2] = tested on: heart slice cultures
Procedure: Additional analysis was performed on 3 slices, at 30 days after plating using a confocal laser scanning microscope (Zeiss), following incubation with 5 μM fluo-4 AM (Invitrogen, France) for 20 min at 37° C.
To monitor spontaneous Ca2+ spiking, heart slice cultures, were loaded with 5 μmol/L Fluo-4 AM ester and the temporal change of fluorescent intensity was measured at physiological temperature (37° C.).

## CNC[C@H](O)c1ccc(O)c(O)c1 [epinephrine]
Heart slice cultures [1]
  spontaneous beating frequencies of heart slice: increased the spontaneous beating frequencies of heart slice in dose-response manner
Heart slice cultures [1]; listed as Epinepfrine
  spontaneous beating frequencies of heart slice: increased the frequencies of spontaneous beating in dose-response manner
Human heart slices
  spontaneous beating frequency of human heart slices: increased spontaneous beating frequency of both human heart slices, in a dose-dependent manner
Human heart slices; listed as Epinephrine
  spontaneous beating frequency of human heart slices: increases the frequencies of beating in human heart slices
Heart slice cultures [2]; heart slice loaded with fluo-4, confocal analysis
  Ca2+-transient amplitude and frequency: dose-dependent increase in Ca2+-transient amplitude and frequency
Heart slice cultures [2]; tested 10, 100 nmol/L and 1 μmol/L
  concentration giving maximal response: 1 µmol/L
